From PMC12473906, “Comparing the Altis RepliGut Organoid System to MDCK Monolayers in Predicting the Oral Absorption of Lenalidomide” (Pharmaceutics, 2025)
Like-named read-outs stand apart in the source and are kept apart here.

Legend:
[1] = cited from earlier work; for Main Route of Absorption: as listed in Table 2, no reference given
[2] = system: human intestinal organoid-derived monolayer (RepliGut)
[3] = ref PubChem; cited from earlier work
[4] = RepliGut human jejunal organoid-derived monolayer permeability assay; conditions: human, pH 7.4
[5] = system: human intestinal organoid-derived monolayer (RepliGut); assay: as above; conditions: organoid vs gMDCK
in vitro [6] = conditions: dog, MDCK, pH 7.4, gMDCK Papp
in vitro [7] = conditions: human, pH 7.4
[8] = gMDCK (P-gp knockout MDCK) monolayer permeability assay; conditions: dog, MDCK, pH 7.4, gMDCK Papp, reference compounds; apical to basolateral; n=3 biological replicates
gMDCK monolayers = conditions: MDCK

| Compound | Main Route of Absorption [1] | Efflux Substrate [2] | LogP [3] | Human Fa (fraction absorbed) [1] | Papp at 3 h [4] [×10⁻⁶ cm/s] | apical to basolateral apparent permeability in intestinal organoids compared with gMDCK monolayers [5] | basolateral to apical permeability in intestinal organoids compared with gMDCK cells [5] | basolateral to apical permeability in intestinal organoids compared with gMDCK cells [2] | also measured |
| --- | --- | --- | --- | --- | --- | --- | --- | --- | --- |
| CC(C)CN(C[C@@H](O)[C@H](Cc1ccccc1)NC(=O)O[C@H]1CCOC1)S(=O)(=O)c1ccc(N)cc1 [Amprenavir] | Transcellular | Yes | 2.2 |  |  |  |  |  |  |
| CC(CCc1ccccc1)NCC(O)c1ccc(O)c(C(N)=O)c1 (stereo not drawn) [Labetalol] | Both |  | 1.8 | 95% [9] | 0.85 | significantly lower | significantly higher |  |  |
| COCCc1ccc(OCC(O)CNC(C)C)cc1 (stereo not drawn) [Metoprolol] |  | No |  |  |  |  |  | similar | Papp at 3 h (in vitro [6]): 13 ×10⁻⁶ cm/s; Papp at 3 h (in vitro [7]): 10.1 ×10⁻⁶ cm/s |
| CC(C)(C)NCC(O)COc1cccc2c1CC(O)C(O)C2 (stereo not drawn) [Nadolol] | Paracellular | Yes |  | 57% [9] | 0.17 | higher | significantly higher |  | Papp at 3 h [8]: 0.09 ×10⁻⁶ cm/s; efflux ratio at 3 h (in vitro [7]): > 4 |
| Lucifer yellow |  |  |  |  |  |  |  | similar | apical to basolateral apparent permeability in intestinal organoids compared with gMDCK monolayers [2]: higher; effect of shaking gMDCK cells during the permeability assay on permeability (gMDCK monolayers): did not significantly change |
